The test concerns the target T1, topoisomerase IIβ (TOP2B) (Homo sapiens, UniProt Q02880).
T1 construct: recombinant human TOP2B enzyme (Inspiralis)
In words: kDNA decatenation assay with recombinant human TOP2B, agarose gel. In kind it is biochemical.

T1 sequence (Q02880 2-1626): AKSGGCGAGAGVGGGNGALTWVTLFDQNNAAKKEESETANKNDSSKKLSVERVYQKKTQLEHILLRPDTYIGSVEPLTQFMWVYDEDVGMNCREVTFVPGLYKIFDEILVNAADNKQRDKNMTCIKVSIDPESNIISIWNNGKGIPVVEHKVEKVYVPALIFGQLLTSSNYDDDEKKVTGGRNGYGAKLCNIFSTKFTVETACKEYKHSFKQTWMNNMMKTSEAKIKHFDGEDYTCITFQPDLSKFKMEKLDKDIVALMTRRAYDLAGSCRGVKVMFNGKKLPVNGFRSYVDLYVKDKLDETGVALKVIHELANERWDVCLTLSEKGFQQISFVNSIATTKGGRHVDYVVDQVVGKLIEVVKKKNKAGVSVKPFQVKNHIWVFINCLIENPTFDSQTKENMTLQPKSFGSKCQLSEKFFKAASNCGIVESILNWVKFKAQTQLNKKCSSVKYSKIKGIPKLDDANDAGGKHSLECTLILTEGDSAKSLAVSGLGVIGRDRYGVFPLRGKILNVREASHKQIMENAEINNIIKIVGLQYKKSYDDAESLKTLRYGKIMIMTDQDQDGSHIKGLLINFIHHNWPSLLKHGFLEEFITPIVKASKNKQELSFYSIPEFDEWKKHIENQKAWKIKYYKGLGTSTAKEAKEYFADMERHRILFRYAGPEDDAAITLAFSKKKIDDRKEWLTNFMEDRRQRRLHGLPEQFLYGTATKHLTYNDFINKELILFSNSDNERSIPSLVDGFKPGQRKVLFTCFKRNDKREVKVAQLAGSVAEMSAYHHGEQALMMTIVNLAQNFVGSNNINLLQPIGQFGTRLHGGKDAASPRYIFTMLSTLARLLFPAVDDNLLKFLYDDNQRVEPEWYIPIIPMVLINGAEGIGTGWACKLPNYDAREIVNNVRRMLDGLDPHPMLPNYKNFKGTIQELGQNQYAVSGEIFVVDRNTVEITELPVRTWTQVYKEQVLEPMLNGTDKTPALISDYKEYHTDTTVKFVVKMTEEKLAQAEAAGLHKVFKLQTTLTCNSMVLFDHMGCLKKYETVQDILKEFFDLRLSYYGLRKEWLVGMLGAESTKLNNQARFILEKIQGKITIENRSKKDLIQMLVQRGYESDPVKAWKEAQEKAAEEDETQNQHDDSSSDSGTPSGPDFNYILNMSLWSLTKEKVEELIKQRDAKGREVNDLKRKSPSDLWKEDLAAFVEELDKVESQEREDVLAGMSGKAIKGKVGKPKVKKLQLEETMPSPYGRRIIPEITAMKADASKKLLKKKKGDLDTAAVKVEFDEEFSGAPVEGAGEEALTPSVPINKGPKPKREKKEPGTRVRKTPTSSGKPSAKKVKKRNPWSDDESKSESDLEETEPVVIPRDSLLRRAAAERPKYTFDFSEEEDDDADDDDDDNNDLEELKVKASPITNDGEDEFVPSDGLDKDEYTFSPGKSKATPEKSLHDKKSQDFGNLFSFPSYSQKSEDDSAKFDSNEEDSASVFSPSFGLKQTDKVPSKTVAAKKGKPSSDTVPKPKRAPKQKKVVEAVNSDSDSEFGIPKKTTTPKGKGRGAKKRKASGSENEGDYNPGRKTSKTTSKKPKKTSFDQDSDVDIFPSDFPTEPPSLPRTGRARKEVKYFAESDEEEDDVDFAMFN

A word on the IC50: it is the midpoint of a concentration-inhibition curve. For `COc1cccc2c1C(=O)c1c(O)c3c(c(O)c1C2=O)C[C@@](O)(C(C)=O)C[C@@H]3O[C@H]1C[C@H](N)[C@H](O)[C@H](C)O1` [DAU, daunorubicin], the 50% inhibitory concentration (IC50) amounted to 4 ± 1 µM. Under `COc1cccc2c1C(=O)c1c(O)c3c(c(O)c1C2=O)C[C@@](O)(C(C)O)C[C@@H]3O[C@H]1C[C@H](N)[C@H](O)[C@H](C)O1` (some centres unmarked) [DAU-ol, daunorubicinol] stands 17 ± 4 µM.

Values taken from publication PMC12408707, “Daunorubicin and its hydroxy metabolite in cardiomyocytes: insights into cellular kinetics, toxicity, DNA damage, and dexrazoxane-induced cardioprotection” (Archives of Toxicology, 2025).
